Results taken from ChEMBL document CHEMBL1201862, “PubChem BioAssay data set” (2004).
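48-hour exposure; five concentrations; linearly interpolated endpoints. GI50 = concentration required for 50% inhibition of growth.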 Activity calls are given as the source filed them. No stated cut-off is given here; in the data, active = GI50 up to about 1.1 µM and inactive = higher.

What was measured:
Assay in all cases: NCI tumour cell line growth inhibition, 48 h
PC-3 = test system: PC-3
SK-MEL-2 = test system: SK-MEL-2
NCI-H226 = test system: NCI-H226
HOP-62 = test system: HOP-62
MOLT-4 = test system: MOLT-4
SN12C = test system: SN12C
HCC 2998 = test system: HCC 2998
HL-60 = test system: HL-60
ACHN = test system: ACHN
MCF7 = test system: MCF7
OVCAR-3 = test system: OVCAR-3
SW-620 = test system: SW-620
RPMI-8226 = test system: RPMI-8226
Hs-578T = test system: Hs-578T
MDA-MB-435 = test system: MDA-MB-435
DU-145 = test system: DU-145
HCT-15 = test system: HCT-15
OVCAR-8 = test system: OVCAR-8
SK-MEL-28 = test system: SK-MEL-28
786-0 = test system: 786-0

Row | Compound | GI50 (PC-3) | GI50 (SK-MEL-2) | GI50 (NCI-H226) | GI50 (HOP-62) | GI50 (MOLT-4) | GI50 (SN12C) | GI50 (HCC 2998) | GI50 (HL-60) | GI50 (ACHN) | GI50 (MCF7) | GI50 (OVCAR-3) | GI50 (SW-620) | GI50 (RPMI-8226) | GI50 (Hs-578T) | GI50 (MDA-MB-435) | GI50 (DU-145) | GI50 (HCT-15) | GI50 (OVCAR-8) | GI50 (SK-MEL-28) | GI50 (786-0)
1 | O=c1[nH]nc(-c2cccc(Br)c2)[nH]1 | > 100 µM (inactive) | > 100 µM (inactive) | > 100 µM (inactive) | > 100 µM (inactive) | > 100 µM (inactive) | > 100 µM (inactive) | > 100 µM (inactive) | > 100 µM (inactive) | > 100 µM (inactive) | > 100 µM (inactive) | > 100 µM (inactive) | > 100 µM (inactive) | > 100 µM (inactive) | 18.2 µM (inactive) | > 100 µM (inactive) | > 100 µM (inactive) | > 100 µM | > 100 µM (inactive) | > 100 µM (inactive) | > 100 µM (inactive)
2 | O=C(O)c1ccccc1Sc1ccccc1[N+](=O)[O-] | > 100 µM (inactive) | > 100 µM (inactive) | > 100 µM (inactive) | > 100 µM (inactive) | > 100 µM (inactive) | > 100 µM (inactive) | > 100 µM (inactive) | > 100 µM (inactive) | > 100 µM (inactive) | > 100 µM (inactive) | > 100 µM (inactive) | > 100 µM (inactive) | > 100 µM (inactive) | > 100 µM (inactive) | > 100 µM (inactive) | > 100 µM (inactive) | > 100 µM | > 100 µM (inactive) | > 100 µM (inactive) | > 100 µM (inactive)
3 | Cc1ccc2c(c1)nc1n2C(N)=Nc2ccccc2S1 | 75 µM (inactive) | > 100 µM (inactive) | 30.3 µM (inactive) | > 83.4 µM (inactive) | 4.66 µM (inactive) | > 92.7 µM (inactive) | 51.3 µM (inactive) | 2.67 µM (inactive) | 59.7 µM (inactive) | > 27.2 µM (inactive) | 43.3 µM (inactive) | 40 µM (inactive) | 19.6 µM (inactive) | > 73.5 µM (inactive) | 71.1 µM (inactive) | > 69.8 µM (inactive) | 24.2 µM | 25.5 µM (inactive) | > 100 µM (inactive) | 52.7 µM (inactive)
4 | CCC1=NC(N/N=C/c2ccccc2O)=N/C1=C\c1ccccc1O | 15.5 µM (inactive) | 12.6 µM (inactive) | 22.1 µM (inactive) | 8.55 µM (inactive) | 6.56 µM (inactive) | 21.3 µM (inactive) | 10.2 µM (inactive) | 4.53 µM (inactive) | 4.11 µM (inactive) | 5.52 µM (inactive) | 2.89 µM (inactive) | 7.5 µM (inactive) | 12.9 µM (inactive) | 23.9 µM (inactive) | 13.3 µM (inactive) | 18.2 µM (inactive) | 2.07 µM | 8.57 µM (inactive) | 23.7 µM (inactive) | 6.76 µM (inactive)
5 | CC1=CC(=O)C(C(O)(C(F)(F)F)C(F)(F)F)C(C)(C)C1 (stereo not given) | > 10 µM (inactive) | > 10 µM (inactive) | > 10 µM (inactive) | > 10 µM (inactive) | > 10 µM (inactive) | > 10 µM (inactive) | > 10 µM (inactive) | > 10 µM (inactive) | > 10 µM (inactive) | > 10 µM (inactive) | > 10 µM (inactive) | > 10 µM (inactive) | > 10 µM (inactive) | > 10 µM (inactive) | > 10 µM (inactive) | > 10 µM (inactive) | > 10 µM | > 10 µM (inactive) | > 10 µM (inactive) | > 10 µM (inactive)
6 | COC(=O)c1ccccc1CC1Cc2ccc3c(c2C1=O)CCCC3 (stereo not given) | 23.7 µM (inactive) | 24.7 µM (inactive) | 60.1 µM (inactive) | > 77.4 µM (inactive) | 10.4 µM (inactive) | 37.2 µM (inactive) | 44.3 µM (inactive) | 12.9 µM (inactive) | 48.1 µM (inactive) | 37.4 µM (inactive) | 51.4 µM (inactive) | 32 µM (inactive) | 19.2 µM (inactive) | 60.7 µM (inactive) | 34.6 µM (inactive) | 48.4 µM (inactive) | 25.4 µM | 43.3 µM (inactive) | 64.9 µM (inactive) | 35.2 µM (inactive)
7 | CN(C)CC1CC/C(=C\c2ccc3c(c2)OCO3)C1=O (stereo not given) | 13.6 µM (inactive) | 13 µM (inactive) | 20.4 µM (inactive) | > 51.6 µM (inactive) | 2.98 µM (inactive) | 7.89 µM (inactive) | 22.1 µM (inactive) | 2.56 µM (inactive) | 13.9 µM (inactive) | 3.96 µM (inactive) | 7.74 µM (inactive) | 6.4 µM (inactive) | 1.85 µM (inactive) | 4.38 µM (inactive) | 1.93 µM (inactive) | 7.66 µM (inactive) | 6.67 µM | 8.61 µM (inactive) | 10.5 µM (inactive) | 6.85 µM (inactive)
8 | CC1=CC23C(COC(=O)C24CO4)C(C(=O)O)=CC3C1C (stereo not given) | 11.9 µM (inactive) | 3.08 µM (inactive) | 15.6 µM (inactive) | 14.1 µM (inactive) | 17.4 µM (inactive) | 3.32 µM (inactive) | 15.4 µM (inactive) | 15 µM (inactive) | 27.4 µM (inactive) | 35.6 µM (inactive) | 32.3 µM (inactive) | 18.2 µM (inactive) | 2.37 µM (inactive) | 2.78 µM (inactive) | 23.1 µM (inactive) | 28.1 µM (inactive) | 24.5 µM | 15.9 µM (inactive) | 2.3 µM (inactive) | 5.09 µM (inactive)
9 | N#Cc1ccc(C2ON=C(c3ccccc3)N2C23CC4CC(CC(C4)C2)C3)cc1 (stereo not given) | 7.98 µM (inactive) | > 10 µM (inactive) | 6.76 µM (inactive) | > 10 µM (inactive) | 9.66 µM (inactive) | > 10 µM (inactive) | > 10 µM (inactive) | 4.05 µM (inactive) | > 10 µM (inactive) | > 10 µM (inactive) | > 10 µM (inactive) | > 10 µM (inactive) | 6.19 µM (inactive) | > 10 µM (inactive) | > 10 µM (inactive) | > 10 µM (inactive) | > 10 µM | > 10 µM (inactive) | > 10 µM (inactive) | > 10 µM (inactive)
10 | Nc1ccc(CCN2CCN(CCCc3ccccc3)CC2)cc1 | > 100 µM (inactive) | > 100 µM (inactive) | > 100 µM (inactive) | > 100 µM (inactive) | 50.4 µM (inactive) | > 100 µM (inactive) | 34.4 µM (inactive) | 26.6 µM (inactive) | > 100 µM (inactive) | 28.6 µM (inactive) | 48.1 µM (inactive) | > 100 µM (inactive) | 46.7 µM (inactive) | > 100 µM (inactive) | > 100 µM (inactive) | 70.3 µM (inactive) | 21.7 µM | 47.1 µM (inactive) | > 100 µM (inactive) | 44.3 µM (inactive)
11 | CC1=C(/C=C/C(C)=C/C=C/C(C)=C/C(=O)OCC2OC(n3cc(F)c(=O)[nH]c3=O)CC2OC(=O)/C=C(C)/C=C/C=C(C)/C=C/C2=C(C)CCCC2(C)C)C(C)(C)CCC1 (stereo not given) | 8.95 µM (inactive) | 58.6 µM (inactive) | 37.8 µM (inactive) | 0.306 µM (active) | 1.07 µM (active) | 7.43 µM (inactive) | 0.132 µM (active) | 1.14 µM (inactive) | 0.418 µM (active) | 0.225 µM (active) | 9.75 µM (inactive) | 12.1 µM (inactive) | 0.796 µM (active) | 9.25 µM (inactive) | 13.3 µM (inactive) | 1.27 µM (inactive) | 13.2 µM | 1.71 µM (inactive) | 20.9 µM (inactive) | 1.15 µM (inactive)
12 | S=c1[nH]c2ccc(Br)cc2c(=S)s1 | 19.3 µM (inactive) | 20.6 µM (inactive) | 28.7 µM (inactive) | 34.8 µM (inactive) | 29.9 µM (inactive) | 19.9 µM (inactive) | 26.1 µM (inactive) | 21.6 µM (inactive) | 22.2 µM (inactive) | 17.9 µM (inactive) | 26.5 µM (inactive) | 30.8 µM (inactive) | 29.2 µM (inactive) | 40.5 µM (inactive) | 23.2 µM (inactive) | 38.1 µM (inactive) | 29.5 µM | 31.6 µM (inactive) | 52.7 µM (inactive) | 30.8 µM (inactive)
13 | COc1ccc(-c2cc(-c3ccc(Nc4ccnc5cc(Cl)ccc45)cc3)[nH]c(=O)c2C#N)c2ccccc12 | 19.5 µM (inactive) | 14.1 µM (inactive) | > 100 µM (inactive) | 14.5 µM (inactive) | 2.13 µM (inactive) | 11.4 µM (inactive) | 5.51 µM (inactive) | 3.03 µM (inactive) | 27.5 µM (inactive) | 1.92 µM (inactive) | 2.18 µM (inactive) | 3.51 µM (inactive) | 2.6 µM (inactive) | 2.62 µM (inactive) | 1.87 µM (inactive) | 5.33 µM (inactive) | 8.45 µM | 2.3 µM (inactive) | 3.34 µM (inactive) | 3.4 µM (inactive)
14 | CC(=O)Nc1ccc(C(=O)N[C@@H]2C(=O)N3[C@@H]2SC(C)(C)[C@@H]3C(=O)O)cn1 | > 100 µM (inactive) | > 100 µM (inactive) | > 100 µM (inactive) | > 100 µM (inactive) | > 100 µM (inactive) | > 100 µM (inactive) | > 100 µM (inactive) | > 100 µM (inactive) | > 100 µM (inactive) | > 100 µM (inactive) | > 100 µM (inactive) | > 100 µM (inactive) | > 100 µM (inactive) | > 100 µM (inactive) | > 100 µM (inactive) | > 100 µM (inactive) | > 100 µM | > 100 µM (inactive) | > 100 µM (inactive) | > 100 µM (inactive)
